# Measured values published in patent publication US6624310B1, “Epothilone minor constituents” (Gesellschaft fuer Biotechnologische Forschung, mbH (GBF), priority 1998, dated 2003).
# Where two headings read alike, the source gives them in different places.
# Tested on: mouse fibroblasts (L929)
# Assay: Activity against mouse fibroblasts (L929)
# Assay type: cell-based
# Conditions: for IC50: read-out: Activity against mouse fibroblasts (L929, IC 50/ng/ml)
Compound,"Activity against mouse fibroblasts (L929, IC 50/ng/ml) (L929 mouse fibroblasts)",also measured
"C/C(=C\c1csc(C)n1)[C@@H]1C/C=C/CCC[C@H](C)[C@H](O)[C@@H](C)C(=O)[C@@H](C)[C@@H](O)CC(=O)O1 (relative stereo) [Compound 28, trans-Epothilone C1]",(28) 400 ng/ml,–
"C/C(=C\c1csc(C)n1)[C@@H]1C/C=C/CCC[C@H](C)[C@H](O)[C@@H](C)C(=O)[C@H](C)[C@@H](O)CC(=O)O1 (relative stereo) [Compound 29, trans-Epothilone C2]",(29) 80 ng/ml,–
"C/C(=C\c1csc(C)n1)[C@@H]1C[C@@H]2O[C@@H]2CCC[C@H](C)[C@H](O)[C@@H](C)C(=O)C(C)(C)[C@@H](O)CC(=O)O1 [Compound 1, Epothilone A, reference compound]",(1) 4 ng/ml,–
"C/C(=C\c1csc(C)n1)[C@@H]1C[C@@H]2O[C@]2(C)CCC[C@H](C)[C@H](O)[C@@H](C)C(=O)C(C)(C)[C@@H](O)CC(=O)O1 [Compound 2, Epothilone B, reference compound]",(2) 1-2 ng/ml,–
"C/C(=C\c1csc(CO)n1)[C@@H]1C[C@@H]2O[C@@H]2CCC[C@H](C)[C@H](O)[C@@H](C)C(=O)C(C)(C)[C@@H](O)CC(=O)O1 [Compound 3, Epothilone E, reference compound]",(3) 10 ng/ml,–
"C/C(=C\c1csc(CO)n1)[C@@H]1C[C@@H]2O[C@]2(C)CCC[C@H](C)[C@H](O)[C@@H](C)C(=O)C(C)(C)[C@@H](O)CC(=O)O1 [Compound 4, Epothilone F, reference compound]",–,"Activity against mouse fibroblasts (L929, IC 50/ng/ml): (4) 1.5 ng/ml"
"C/C(=C\c1csc(C)n1)[C@@H]1C[C@@H]2O[C@@H]2CCC[C@H](C)[C@H](O)[C@@H](C)C(=O)[C@H](C)[C@@H](O)CC(=O)O1 [Compound 5, Epothilone A1]",(5) 20 ng/ml,–
"C/C(=C\c1csc(C)n1)[C@@H]1C[C@@H]2O[C@@H]2CCC[C@H](C)[C@H](O)[C@@H](C)C(=O)[C@@H](C)[C@@H](O)CC(=O)O1 [Compound 6, Epothilone A2]",(6) 7 ng/ml,–
"Cc1nc(/C=C/[C@@H]2C[C@@H]3O[C@@H]3CCC[C@H](C)[C@H](O)[C@@H](C)C(=O)C(C)(C)[C@@H](O)CC(=O)O2)cs1 [Compound 7, Epothilone A8]",(7) 20 ng/ml,–
"Cc1nc(/C=C(\CO)[C@@H]2C[C@@H]3O[C@@H]3CCC[C@H](C)[C@H](O)[C@@H](C)C(=O)C(C)(C)[C@@H](O)CC(=O)O2)cs1 [Compound 8, Epothilone A9]",(8) 100 ng/ml,–
"CCc1nc(/C=C(\C)[C@@H]2C[C@@H]3O[C@]3(C)CCC[C@H](C)[C@H](O)[C@@H](C)C(=O)C(C)(C)[C@@H](O)CC(=O)O2)cs1 [Compound 9, Epothilone B10]",–,IC50 (L929 mouse fibroblasts): 1.5 ng/mL
"C/C(=C\c1coc(C)n1)[C@@H]1C[C@@H]2O[C@]2(C)CCC[C@H](C)[C@H](O)[C@@H](C)C(=O)C(C)(C)[C@@H](O)CC(=O)O1 [Compound 11, Epothilone G2]",(11) 1 ng/ml,–
"C/C(=C\c1coc(C)n1)[C@@H]1C/C=C\CCC[C@H](C)[C@H](O)[C@@H](C)C(=O)C(C)(C)[C@@H](O)CC(=O)O1 [Compound 12, Epothilone H1]",(12) 120 ng/ml,–
"C/C1=C/C[C@@H](/C(C)=C/c2coc(C)n2)OC(=O)C[C@H](O)C(C)(C)C(=O)[C@H](C)[C@@H](O)[C@@H](C)CCC1 [Compound 13, Epothilone H2]",(13) 11 ng/ml,–
"C/C(=C\c1csc(C)n1)[C@@H]1C/C=C\CCC[C@H](C)[C@H](O)[C@@H](C)C(=O)C(C)(C)[C@@H](O)CC(=O)O1 [Compound 14, Epothilone C, reference compound]",(14) 50-100 ng/ml,–
"C/C1=C/C[C@@H](/C(C)=C/c2csc(C)n2)OC(=O)C[C@H](O)C(C)(C)C(=O)[C@H](C)[C@@H](O)[C@@H](C)CCC1 [Compound 15, Epothilone D, reference compound]",(15) 20 ng/ml,–
"C/C(=C\c1csc(C)n1)[C@@H]1C/C=C\CCC[C@H](C)[C@H](O)[C@@H](C)C(=O)[C@H](C)[C@@H](O)CC(=O)O1 [Compound 16, Epothilone C1]",(16) 200 ng/ml,–
"C/C1=C/C[C@@H](/C(C)=C/c2csc(C)n2)OC(=O)C[C@H](O)[C@@H](C)C(=O)[C@H](C)[C@@H](O)[C@@H](C)CCC1 [Compound 17, Epothilone D1]",(17) 20 ng/ml,–
"C/C1=C/C[C@@H](/C(C)=C/c2csc(C)n2)OC(=O)C[C@H](O)[C@H](C)C(=O)[C@H](C)[C@@H](O)[C@@H](C)CCC1 [Compound 19, Epothilone D2]",(19) 12 ng/ml,–
"C/C(=C\c1csc(C)n1)[C@@H]1C/C=C\CCC[C@H](C)[C@H](O)CC(=O)C(C)(C)[C@@H](O)CC(=O)O1 [Compound 20, Epothilone C3]",(20) 1500 ng/ml,–
"C/C(=C\c1csc(C)n1)[C@@H]1C/C=C\CCCC[C@H](O)[C@@H](C)C(=O)C(C)(C)[C@@H](O)CC(=O)O1 [Compound 21, Epothilone C4]",(21) 800 ng/ml,–
"C/C(=C\c1csc(C)n1)[C@@H]1C/C=C\CC/C=C(\C)[C@H](O)[C@@H](C)C(=O)C(C)(C)[C@@H](O)CC(=O)O1 [Compound 22, Epothilone C5]",(22) 1500 ng/ml,–
"C/C(=C\c1csc(C)n1)[C@@H]1C/C=C\C=C\C[C@H](C)[C@H](O)[C@@H](C)C(=O)C(C)(C)[C@@H](O)CC(=O)O1 [Compound 24, Epothilone C6]",–,IC50 (L929 mouse fibroblasts): 120 ng/mL
"Cc1nc(/C=C/[C@@H]2C/C=C\CCC[C@H](C)[C@H](O)[C@@H](C)C(=O)C(C)(C)[C@@H](O)CC(=O)O2)cs1 [Compound 26, Epothilone C8]",(26) 250 ng/ml,–
"Cc1nc(/C=C(\CO)[C@@H]2C/C=C\CCC[C@H](C)[C@H](O)[C@@H](C)C(=O)C(C)(C)[C@@H](O)CC(=O)O2)cs1 [Compound 27, Epothilone C9]",(27) 200 ng/ml,–
"C/C1=C/C[C@@H](/C(C)=C/c2csc(C)n2)OC(=O)C[C@H](O)C(C)C(=O)C(C)CCC1 (stereo partly shown) [Compound 36, Epothilone K]",–,IC50 (L929 mouse fibroblasts): 180 ng/mL
C/C(=C\c1csc(C)n1)[C@@H](O)C/C=C\CCC[C@H](C)[C@H](O)[C@@H](C)C(=O)C(C)C [Compound 37],–,IC50 (L929 mouse fibroblasts): 50 ng/mL
Epothilone D5 [Compound 23],(23) 200 ng/ml,–
